{"source": "patent US20230063321A1", "about": "“Methods for Treating Inflammatory Bowel Diseases with alpha4beta7 Integrin Antagonists” (Protagonist Therapeutics, Inc., priority 2020, published 2023)", "key": {"α4β7": {"biological_target": "T1, α4β7 (Mus musculus, UniProt P26011+Q00651)", "T1 construct": "mice were euthanized and whole blood/plasma and Peyer's patches were collected; from tissue; host or cells: whole blood and Peyer's patches of C57BL/6 mice", "T1 sequence (Q00651 41-1039)": "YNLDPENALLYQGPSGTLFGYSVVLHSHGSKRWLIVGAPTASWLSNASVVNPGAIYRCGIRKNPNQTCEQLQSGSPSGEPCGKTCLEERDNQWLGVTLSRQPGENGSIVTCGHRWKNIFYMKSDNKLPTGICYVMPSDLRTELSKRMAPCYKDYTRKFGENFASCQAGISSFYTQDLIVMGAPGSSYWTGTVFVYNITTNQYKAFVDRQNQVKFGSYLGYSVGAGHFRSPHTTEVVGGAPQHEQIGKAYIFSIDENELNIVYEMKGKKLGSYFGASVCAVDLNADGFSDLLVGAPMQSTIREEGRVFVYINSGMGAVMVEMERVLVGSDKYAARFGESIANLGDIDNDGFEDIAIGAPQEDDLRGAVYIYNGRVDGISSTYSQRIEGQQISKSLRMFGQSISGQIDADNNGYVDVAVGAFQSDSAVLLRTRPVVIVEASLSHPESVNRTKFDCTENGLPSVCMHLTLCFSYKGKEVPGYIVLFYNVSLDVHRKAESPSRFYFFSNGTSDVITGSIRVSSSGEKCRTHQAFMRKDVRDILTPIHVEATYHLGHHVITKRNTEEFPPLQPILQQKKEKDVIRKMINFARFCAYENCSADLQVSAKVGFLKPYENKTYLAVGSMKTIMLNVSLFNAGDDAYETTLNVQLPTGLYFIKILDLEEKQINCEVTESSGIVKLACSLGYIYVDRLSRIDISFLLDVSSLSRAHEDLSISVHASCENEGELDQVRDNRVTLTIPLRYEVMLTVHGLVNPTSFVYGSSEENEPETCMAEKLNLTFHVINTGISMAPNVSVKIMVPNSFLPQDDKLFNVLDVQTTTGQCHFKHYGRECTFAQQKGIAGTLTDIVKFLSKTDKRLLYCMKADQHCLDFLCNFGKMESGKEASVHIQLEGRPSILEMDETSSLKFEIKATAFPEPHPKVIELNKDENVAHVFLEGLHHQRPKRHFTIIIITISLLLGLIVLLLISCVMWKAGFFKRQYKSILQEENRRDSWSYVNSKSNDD", "T1 sequence (P26011 20-806)": "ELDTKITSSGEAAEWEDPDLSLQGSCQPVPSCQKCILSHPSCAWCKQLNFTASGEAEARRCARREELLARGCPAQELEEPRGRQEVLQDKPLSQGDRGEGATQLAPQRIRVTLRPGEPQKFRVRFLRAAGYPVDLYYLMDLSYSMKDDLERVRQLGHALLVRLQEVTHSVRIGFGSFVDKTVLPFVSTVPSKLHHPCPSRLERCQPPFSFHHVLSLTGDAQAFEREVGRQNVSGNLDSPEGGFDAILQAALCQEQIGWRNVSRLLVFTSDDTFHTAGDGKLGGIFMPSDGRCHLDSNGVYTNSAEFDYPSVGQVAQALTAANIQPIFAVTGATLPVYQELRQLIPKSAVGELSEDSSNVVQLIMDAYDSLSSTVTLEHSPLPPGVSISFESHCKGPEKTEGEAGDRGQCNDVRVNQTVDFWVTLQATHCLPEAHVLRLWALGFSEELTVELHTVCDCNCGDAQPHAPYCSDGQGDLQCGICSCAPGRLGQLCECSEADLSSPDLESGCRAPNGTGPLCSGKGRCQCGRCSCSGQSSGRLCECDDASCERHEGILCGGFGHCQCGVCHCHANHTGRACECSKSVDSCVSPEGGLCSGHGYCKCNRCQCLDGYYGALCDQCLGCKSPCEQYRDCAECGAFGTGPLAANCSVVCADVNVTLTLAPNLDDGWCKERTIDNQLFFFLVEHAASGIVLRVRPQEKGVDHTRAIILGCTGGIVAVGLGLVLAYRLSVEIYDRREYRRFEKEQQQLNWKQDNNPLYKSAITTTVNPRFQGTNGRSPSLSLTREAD", "assay": "α4β7 receptor occupancy in whole blood and Peyer's patches after oral dosing", "type": "in vivo, C57BL/6 mice"}, "[1]": {"biological_target": "T2, α4β7 integrin on memory CD4+ T cells (Homo sapiens, UniProt P13612+P26010)", "T2 construct": "the amount of α4β7 expression on the cell surface of circulating lymphocytes; endogenous in cells; host or cells: heparinized whole blood of healthy volunteers", "T2 sequence (P13612 34-1032)": "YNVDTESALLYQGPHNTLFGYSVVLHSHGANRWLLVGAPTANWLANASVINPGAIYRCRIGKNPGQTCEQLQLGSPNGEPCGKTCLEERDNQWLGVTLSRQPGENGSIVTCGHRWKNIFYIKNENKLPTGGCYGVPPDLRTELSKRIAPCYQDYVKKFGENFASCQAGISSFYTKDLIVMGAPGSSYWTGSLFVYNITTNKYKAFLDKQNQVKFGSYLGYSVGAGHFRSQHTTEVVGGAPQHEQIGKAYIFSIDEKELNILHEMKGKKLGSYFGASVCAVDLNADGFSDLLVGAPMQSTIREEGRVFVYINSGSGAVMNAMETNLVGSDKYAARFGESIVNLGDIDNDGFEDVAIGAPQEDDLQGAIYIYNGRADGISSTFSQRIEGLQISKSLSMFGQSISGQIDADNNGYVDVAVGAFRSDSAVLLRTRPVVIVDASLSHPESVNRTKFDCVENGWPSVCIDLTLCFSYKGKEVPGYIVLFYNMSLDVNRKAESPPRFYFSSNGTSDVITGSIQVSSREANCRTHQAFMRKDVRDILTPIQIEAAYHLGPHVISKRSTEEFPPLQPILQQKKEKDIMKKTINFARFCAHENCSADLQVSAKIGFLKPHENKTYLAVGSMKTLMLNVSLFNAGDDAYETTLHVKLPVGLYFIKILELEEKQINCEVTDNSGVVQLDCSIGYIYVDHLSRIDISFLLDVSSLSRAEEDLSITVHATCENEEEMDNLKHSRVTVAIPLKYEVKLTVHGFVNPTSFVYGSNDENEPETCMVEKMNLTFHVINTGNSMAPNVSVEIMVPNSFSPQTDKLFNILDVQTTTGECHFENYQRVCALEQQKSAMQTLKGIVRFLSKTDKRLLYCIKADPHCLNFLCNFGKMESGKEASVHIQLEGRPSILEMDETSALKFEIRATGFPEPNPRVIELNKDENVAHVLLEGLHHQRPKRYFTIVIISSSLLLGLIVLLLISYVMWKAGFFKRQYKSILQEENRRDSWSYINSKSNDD", "T2 sequence (P26010 20-798)": "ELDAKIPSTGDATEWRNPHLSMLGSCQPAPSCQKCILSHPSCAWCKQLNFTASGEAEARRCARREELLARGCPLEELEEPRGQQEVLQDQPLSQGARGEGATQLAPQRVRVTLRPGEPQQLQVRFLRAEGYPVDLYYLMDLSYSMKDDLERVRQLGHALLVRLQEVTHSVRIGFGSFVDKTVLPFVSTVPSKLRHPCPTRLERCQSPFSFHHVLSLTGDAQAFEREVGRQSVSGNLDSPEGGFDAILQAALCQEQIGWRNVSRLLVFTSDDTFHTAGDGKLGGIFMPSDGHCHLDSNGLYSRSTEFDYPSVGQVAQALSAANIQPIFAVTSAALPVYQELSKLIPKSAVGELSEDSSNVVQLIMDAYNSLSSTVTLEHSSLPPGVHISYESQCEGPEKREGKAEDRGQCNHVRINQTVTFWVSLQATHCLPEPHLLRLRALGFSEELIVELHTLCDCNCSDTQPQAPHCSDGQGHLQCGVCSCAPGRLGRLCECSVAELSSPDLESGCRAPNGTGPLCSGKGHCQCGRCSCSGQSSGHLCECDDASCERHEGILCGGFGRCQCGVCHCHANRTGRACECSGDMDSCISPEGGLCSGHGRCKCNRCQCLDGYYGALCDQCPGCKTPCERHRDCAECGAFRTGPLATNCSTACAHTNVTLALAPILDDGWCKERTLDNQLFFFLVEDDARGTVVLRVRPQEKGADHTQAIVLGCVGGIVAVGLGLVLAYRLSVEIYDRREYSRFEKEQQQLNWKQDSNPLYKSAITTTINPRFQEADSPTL", "assay": "Study 1 blood α4β7 receptor occupancy and receptor expression", "type": "in vivo", "settings": "for Average RE (%) / Average RO (%) / REmax (%) / ROmax (%) / Tmax for RE / Tmax for RO: Mean ± SD", "method": "After staining is completed, the samples are treated with a red blood cell lysis and fixation buffer, washed and acquired on a flow cytometer. To quantify receptor occupancy on α4β7 expressing memory CD4 T cells, the […] fluorescence intensity (MFI) of Alexa647-labelled peptide within the vedolizumab+ memory CD4+ T cells was used. Receptor occupancy was calculated according to the following formula: [Percent RO]=(1−([Unblocked]−[Blocked])/([Baseline Unblocked]−[Baseline Blocked]))×100.\nExpression of α4β7 is defined by MFI of vedolizumab within the memory CD4+ T cells from the unblocked samples. Receptor expression (RE) was calculated as percent change of MFI from baseline for the vedolizumab stain."}, "[2]": {"settings": "300 mg Fasted once daily, Day 1"}, "[3]": {"settings": "300 mg Fasted once daily, Day 14"}}, "note": "“And” between values parts separate entries of the source, which are not always exact repeats. Identical values can stand only once. Numbered stars: 1 amine (or outer) side, 2 acyl side, 3 side chain; on linkers, the order of the positions; unused ones are H or OH. Bridge positions count the residues as written; N and C are the ends. Square brackets hold non-standard residues; d marks the D form. Peptide text beside a SMILES is read from it. I, II: the chains in the order shown. ξ: configuration not given here. Phe(4-tBu) = CC(C)(C)c1ccc(C[C@H](N)C(=O)O)cc1; Diglycolyl = O=C(COCC(=O)[*:2])[*:1]; NMeR = CN[C@@H](CCCNC(=N)N)C(=O)O; β3hE = N[C@@H](CCC(=O)O)CC(=O)O; Thr(3ξ) = CC(O)[C@H](N)C(=O)O; X1 = O=C(c1ccccc1C[*:2])[*:1]; Pen = CC(C)(S)[C@H](N)C(=O)O", "data": [{"molecule": "CC(C)C[C@@H]1NC(=O)[C@H](C(C)O)NC(=O)[C@H](CC(=O)O)NC(=O)[C@H](CO)NC(=O)[C@H](CCCNC(=N)N)N(C)C(=O)c2ccccc2CSC(C)(C)[C@@H](C(=O)N[C@@H](Cc2ccc(C(C)(C)C)cc2)C(=O)N[C@@H](CCC(=O)O)CC(=O)N[C@H](CCCCNC(=O)COCC(=O)NCCCC[C@@H](NC(=O)C[C@H](CCC(=O)O)NC(=O)[C@H](Cc2ccc(C(C)(C)C)cc2)NC(=O)[C@H]2NC(=O)[C@H](CC(C)C)NC(=O)[C@H](C(C)O)NC(=O)[C@H](CC(=O)O)NC(=O)[C@H](CO)NC(=O)[C@H](CCCNC(=N)N)N(C)C(=O)c3ccccc3CSC2(C)C)C(=O)O)C(=O)O)NC1=O", "note": "(stereo partly drawn) [Compound A, ((2-Benzyl)-(N-Me-R)-Ser-Asp-Thr-Leu-Pen-(Phe(4-tBlu))-(β-homo-Glu)-(D-Lys)-OH)2 (SEQ ID NO: 5) and linker-DIG diglycolic acid] (I: [NMeR]SD[Thr(3ξ)]L[Pen][Phe(4-tBu)][β3hE][dK]-OH / II: [NMeR]SD[Thr(3ξ)]L[Pen][Phe(4-tBu)][β3hE][dK]-OH; linker I:9-II:9 via Diglycolyl; linker I:N-I:6, II:N-II:6 via X1)", "values": [{"measurement": "receptor occupancy in whole blood and Peyer's patches, 30 mg/kg vs 3 mg/kg dose group", "setting": "α4β7; PO", "result": "significantly higher"}, {"measurement": "receptor occupancy in Peyer's patches compared to whole blood", "setting": "α4β7; both dose groups (3 and 30 mg/kg PO)", "result": "significantly higher"}, {"measurement": "receptor occupancy at 30 mg/kg", "setting": "α4β7; mouse, 30 mg/kg dose", "result": 100, "unit": "%"}, {"measurement": "Average RE (%)", "setting": "[1]; 100 mg Fed once daily, Day 1", "result": "−12.3 ± 6.6", "unit": "%"}, {"measurement": "Average RO (%)", "setting": "[1]; 100 mg Fed once daily, Day 1", "result": "30.0 ± 7.7", "unit": "%"}, {"measurement": "REmax (%)", "setting": "[1]; 100 mg Fed once daily, Day 1", "result": "−17.4 ± 7.5", "unit": "%"}, {"measurement": "ROmax (%)", "setting": "[1]; 100 mg Fed once daily, Day 1", "result": "46.8 ± 11.2", "unit": "%"}, {"measurement": "Tmax for RE", "setting": "[1]; 100 mg Fed once daily, Day 1", "result": "14.0 ± 4.2", "unit": "h"}, {"measurement": "Tmax for RO", "setting": "[1]; 100 mg Fed once daily, Day 1", "result": "6.0 ± 3.7", "unit": "h"}, {"measurement": "Average RE (%)", "setting": "[1]; 100 mg Fed once daily, Day 14", "result": "−23.8 ± 6.9", "unit": "%"}, {"measurement": "Average RO (%)", "setting": "[1]; 100 mg Fed once daily, Day 14", "result": "40.5 ± 7.5", "unit": "%"}, {"measurement": "REmax (%)", "setting": "[1]; 100 mg Fed once daily, Day 14", "result": "−29.1 ± 7.2", "unit": "%"}, {"measurement": "ROmax (%)", "setting": "[1]; 100 mg Fed once daily, Day 14", "result": "55.5 ± 8.82", "unit": "%"}, {"measurement": "Tmax for RE", "setting": "[1]; 100 mg Fed once daily, Day 14", "result": "12.0 ± 0", "unit": "h"}, {"measurement": "Tmax for RO", "setting": "[1]; 100 mg Fed once daily, Day 14", "result": "5.0 ± 2.8", "unit": "h"}, {"measurement": "Average RE (%)", "setting": "[1]; [2]", "result": "−25.1 ± 4.4", "unit": "%"}, {"measurement": "Average RO (%)", "setting": "[1]; [2]", "result": "53.9 ± 6.5", "unit": "%"}, {"measurement": "REmax (%)", "setting": "[1]; [2]", "result": "−33.1 ± 5.2", "unit": "%"}, {"measurement": "ROmax (%)", "setting": "[1]; [2]", "result": "77.8 ± 5.13", "unit": "%"}, {"measurement": "Tmax for RE", "setting": "[1]; [2]", "result": "12.0 ± 0", "unit": "h"}, {"measurement": "Tmax for RO", "setting": "[1]; [2]", "result": "4.0 ± 0", "unit": "h"}, {"measurement": "ROmax (%)", "setting": "[1]; 300 mg Fasted once daily, Day 1, listed as COMPOUND A", "result": 77.8, "unit": "%"}, {"measurement": "Average RE (%)", "setting": "[1]; [3]", "result": "−37.7 ± 5.2", "unit": "%"}, {"measurement": "Average RO (%)", "setting": "[1]; [3]", "result": "61.1 ± 6.0", "unit": "%"}, {"measurement": "REmax (%)", "setting": "[1]; [3]", "result": "−41.5 ± 5.9", "unit": "%"}, {"measurement": "ROmax (%)", "setting": "[1]; [3]", "result": "79.7 ± 5.40", "unit": "%"}, {"measurement": "Tmax for RE", "setting": "[1]; [3]", "result": "6.0 ± 3.7", "unit": "h"}, {"measurement": "Tmax for RO", "setting": "[1]; [3]", "result": "4.0 ± 0", "unit": "h"}, {"measurement": "ROmax (%)", "setting": "[1]; 300 mg Fasted once daily, Day 14, listed as COMPOUND A", "result": 79.7, "unit": "%"}, {"measurement": "Average RE (%)", "setting": "[1]; 300 mg Fed once daily, Day 1", "result": "−20.1 ± 3.4", "unit": "%"}, {"measurement": "Average RO (%)", "setting": "[1]; 300 mg Fed once daily, Day 1", "result": "47.2 ± 7.5", "unit": "%"}, {"measurement": "REmax (%)", "setting": "[1]; 300 mg Fed once daily, Day 1", "result": "−28.4 ± 4.4", "unit": "%"}, {"measurement": "ROmax (%)", "setting": "[1]; 300 mg Fed once daily, Day 1", "result": "70.4 ± 7.39", "unit": "%"}, {"measurement": "Tmax for RE", "setting": "[1]; 300 mg Fed once daily, Day 1", "result": "12.0 ± 0", "unit": "h"}, {"measurement": "Tmax for RO", "setting": "[1]; 300 mg Fed once daily, Day 1", "result": "4.0 ± 0", "unit": "h"}, {"measurement": "Average RE (%)", "setting": "[1]; 300 mg Fed once daily, Day 14", "result": "−31.7 ± 4.0", "unit": "%"}, {"measurement": "Average RO (%)", "setting": "[1]; 300 mg Fed once daily, Day 14", "result": "57.8 ± 3.9", "unit": "%"}, {"measurement": "REmax (%)", "setting": "[1]; 300 mg Fed once daily, Day 14", "result": "−37.2 ± 4.7", "unit": "%"}, {"measurement": "ROmax (%)", "setting": "[1]; 300 mg Fed once daily, Day 14", "result": "78.9 ± 5.89", "unit": "%"}, {"measurement": "Tmax for RE", "setting": "[1]; 300 mg Fed once daily, Day 14", "result": "12.0 ± 0", "unit": "h"}, {"measurement": "Tmax for RO", "setting": "[1]; 300 mg Fed once daily, Day 14", "result": "4.0 ± 0", "unit": "h"}, {"measurement": "peak percent receptor occupancy", "setting": "[1]; 300 mg within 30 minutes following a high fat meal", "result": 61.4, "unit": "%"}, {"measurement": "Average RE (%)", "setting": "[1]; 450 mg BID, Day 1", "result": "−33.4 ± 4.4", "unit": "%"}, {"measurement": "Average RO (%)", "setting": "[1]; 450 mg BID, Day 1", "result": "76.4 ± 8.4", "unit": "%"}, {"measurement": "REmax (%)", "setting": "[1]; 450 mg BID, Day 1", "result": "−42.6 ± 4.6", "unit": "%"}, {"measurement": "ROmax (%)", "setting": "[1]; 450 mg BID, Day 1", "result": "86.5% and 86.5 ± 4.11%"}, {"measurement": "Tmax for RE", "setting": "[1]; 450 mg BID, Day 1", "result": "19 ± 4.7", "unit": "h"}, {"measurement": "Tmax for RO", "setting": "[1]; 450 mg BID, Day 1", "result": "16 ± 6.2", "unit": "h"}, {"measurement": "Average RE (%)", "setting": "[1]; 450 mg BID, Day 5, N = 7", "result": "−44.3 ± 4.2", "unit": "%"}, {"measurement": "REmax (%)", "setting": "[1]; 450 mg BID, Day 5, N = 7", "result": "−47.3 ± 4.3", "unit": "%"}, {"measurement": "ROmax (%)", "setting": "[1]; 450 mg BID, Day 5, N = 7", "result": "91.9% and 91.9 ± 3.42%"}, {"measurement": "Tmax for RE", "setting": "[1]; 450 mg BID, Day 5, N = 7", "result": "5.6 ± 5.1", "unit": "h"}, {"measurement": "Tmax for RO", "setting": "[1]; 450 mg BID, Day 5, N = 7", "result": "2.3 ± 1.6", "unit": "h"}, {"measurement": "Average RO (%)", "setting": "[1]; 450 mg BID, Day 5, N = 7, 24-hour AUEC", "result": "85.3% and 85.3 ± 7.3%"}, {"measurement": "receptor occupancy at 450 mg", "setting": "[1]; 450 mg twice daily, read-out: trough receptor occupancy", "result": "~79.2", "unit": "%"}, {"measurement": "Average RE (%)", "setting": "[1]; 900 mg QD, Day 1", "result": "−38.3 ± 4.9", "unit": "%"}, {"measurement": "Average RO (%)", "setting": "[1]; 900 mg QD, Day 1", "result": "80.7 ± 6.7", "unit": "%"}, {"measurement": "REmax (%)", "setting": "[1]; 900 mg QD, Day 1", "result": "−47.3 ± 5.0", "unit": "%"}, {"measurement": "ROmax (%)", "setting": "[1]; 900 mg QD, Day 1", "result": "94.5% and 94.5 ± 2.61%"}, {"measurement": "Tmax for RE", "setting": "[1]; 900 mg QD, Day 1", "result": "13 ± 1.4", "unit": "h"}]}]}
